# US12643871B2, “Aryl formamide compound containing chiral sulfur oxide or salt thereof, preparation method, herbicidal composition and use thereof” (Qingdao Kingagroot Chemical Compound Co., Ltd., priority 2019, dated 2026)
# Assays:
# Type in all cases: in vivo
# Digitaria sanguinalis [1] = test: Comparison experiment (post-emergence) against racemate / S configuration; settings: Digitaria sanguinalis (3.5 leaf), 16DAA
# Alopecurus japonicas = test: as above; settings: Table 6, post-seedling test conditions
# Procedure, shortened: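 Readout: fresh weight control rate, counted 15 days post-spray and averaged over three replicates. Pot-grown plants (seeds under 0.5-2 cm soil) were treated at the 2 leaf stage, two weeks after sowing, with 15–500 g/ha compound plus methyl oleate synergist at 1.5 liter/ha.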
# Digitaria sanguinalis [2] = test: as above; settings: Table 6, post-seedling test conditions
# Corn-Zhengdan 958 = test: Comparison experiment (post-emergence, Table 7), crop safety on corn; settings: Corn-Zhengdan 958 (3.5 leaf)
# Description: (§1) If there is no clear marker, the post-seedling test conditions are the same as above, and the experimental results are shown in Tables 4-7.
# Green Setaria viridis = test: Comparison experiment (post-emergence) against racemate / S configuration; settings: for Results of comparison experiment (16DAA), weed control: Setaria viridis (4 leaf)
# Leptochloa chinensis = test: as above; settings: Leptochloa chinensis (4.5 leaf), 16DAA
# Abutilon theophrasti = test: as above; settings: Abutilon theophrasti (3.5 leaf), 16DAA
# Veronica didyma = test: Comparison experiment (post-emergence, Table 7); settings: Veronica didyma (2 branches)
# Description: as §1
# Malachium aquaticum = test: Comparison experiment (post-emergence, Table 7); settings: Malachium aquaticum (2 branches)
# Description: as §1
# Amaranthus retroflexus = test: Comparison experiment (post-emergence, Table 7); settings: Amaranthus retroflexus (6 leaf)
# Description: as §1
# Descurainia sophia = test: Comparison experiment (post-emergence, Table 7); settings: Descurainia sophia (12 leaf)
# Description: as §1
# Galium aparine = test: Comparison experiment (post-emergence, Table 7); settings: Galium aparine (5 branches)
# Description: as §1
# Echinochloa crusgali = test: Comparison experiment (post-emergence, Table 7); settings: Echinochloa crusgali (3 leaf)
# Description: as §1
# Capsella bursa-pastoris = test: Comparison experiment (post-emergence, Table 7); settings: Capsella bursa-pastoris (10-11 leaf)
# Description: as §1
# Sinapis arvensis = test: Comparison experiment (post-emergence, Table 7); settings: Sinapis arvensis (3.5 leaf)
# Description: as §1
compound,measurement,setting,value
"CC[S+]([O-])c1c(C(F)(F)F)ccc(C(=O)Nc2nnc(C)o2)c1SC (centres unmarked) [Control Compound A′, reference compound]","Results of comparison experiment (16DAA), weed control",Digitaria sanguinalis [1]; 3 g/ha,10%
same,"Results of comparison experiment (16DAA), weed control",Digitaria sanguinalis [1]; 6 g/ha,10%
same,"Results of comparison experiment (16DAA), weed control",Digitaria sanguinalis [1]; 12 g/ha,20%
same,"Results of comparison experiment (16DAA), weed control",Digitaria sanguinalis [1]; 24 g/ha,30%
same,"Results of comparison experiment (16DAA), weed control",Digitaria sanguinalis [1]; 48 g/ha,30%
same,"Results of comparison experiment, Alopecurus japonicas (120 g/ha)",Alopecurus japonicas,20%
same,"Results of comparison experiment, Digitaria sanguinalis (30 g/ha)",Digitaria sanguinalis [2],50%
same,"Results of comparison experiment (16DAA), crop damage",Corn-Zhengdan 958; 3 g/ha,0%
same,"Results of comparison experiment (16DAA), crop damage",Corn-Zhengdan 958; 6 g/ha,0%
same,"Results of comparison experiment (16DAA), crop damage",Corn-Zhengdan 958; 12 g/ha,0%
same,"Results of comparison experiment (16DAA), crop damage",Corn-Zhengdan 958; 24 g/ha,0%
same,"Results of comparison experiment (16DAA), crop damage",Corn-Zhengdan 958; 48 g/ha,0%
same,"Results of comparison experiment, Green Setaria viridis (30 g/ha)","Green Setaria viridis; 30 g/ha, Table 6, post-seedling test conditions",90%
same,"Results of comparison experiment (16DAA), weed control",Green Setaria viridis; 3 g/ha,0%
same,"Results of comparison experiment (16DAA), weed control",Green Setaria viridis; 6 g/ha,0%
same,"Results of comparison experiment (16DAA), weed control",Green Setaria viridis; 12 g/ha,10%
same,"Results of comparison experiment (16DAA), weed control",Green Setaria viridis; 24 g/ha,40%
same,"Results of comparison experiment (16DAA), weed control",Green Setaria viridis; 48 g/ha,50%
same,"Results of comparison experiment (16DAA), weed control",Leptochloa chinensis; 3 g/ha,0%
same,"Results of comparison experiment (16DAA), weed control",Leptochloa chinensis; 6 g/ha,0%
same,"Results of comparison experiment (16DAA), weed control",Leptochloa chinensis; 12 g/ha,0%
same,"Results of comparison experiment (16DAA), weed control",Leptochloa chinensis; 24 g/ha,10%
same,"Results of comparison experiment (16DAA), weed control",Leptochloa chinensis; 48 g/ha,20%
same,"Results of comparison experiment (16DAA), weed control",Abutilon theophrasti; 3 g/ha,10%
same,"Results of comparison experiment (16DAA), weed control",Abutilon theophrasti; 6 g/ha,20%
same,"Results of comparison experiment (16DAA), weed control",Abutilon theophrasti; 12 g/ha,30%
same,"Results of comparison experiment (16DAA), weed control",Abutilon theophrasti; 24 g/ha,40%
same,"Results of comparison experiment (16DAA), weed control",Abutilon theophrasti; 48 g/ha,50%
same,"Results of comparison experiment (16DAA), weed control",Veronica didyma; 3 g/ha,10%
same,"Results of comparison experiment (16DAA), weed control",Veronica didyma; 6 g/ha,10%
same,"Results of comparison experiment (16DAA), weed control",Veronica didyma; 12 g/ha,20%
same,"Results of comparison experiment (16DAA), weed control",Veronica didyma; 24 g/ha,20%
same,"Results of comparison experiment (16DAA), weed control",Veronica didyma; 48 g/ha,20%
same,"Results of comparison experiment (16DAA), weed control",Malachium aquaticum; 3 g/ha,10%
same,"Results of comparison experiment (16DAA), weed control",Malachium aquaticum; 6 g/ha,10%
same,"Results of comparison experiment (16DAA), weed control",Malachium aquaticum; 12 g/ha,20%
same,"Results of comparison experiment (16DAA), weed control",Malachium aquaticum; 24 g/ha,30%
same,"Results of comparison experiment (16DAA), weed control",Malachium aquaticum; 48 g/ha,50%
same,"Results of comparison experiment (16DAA), weed control",Amaranthus retroflexus; 3 g/ha,10%
same,"Results of comparison experiment (16DAA), weed control",Amaranthus retroflexus; 6 g/ha,10%
same,"Results of comparison experiment (16DAA), weed control",Amaranthus retroflexus; 12 g/ha,40%
same,"Results of comparison experiment (16DAA), weed control",Amaranthus retroflexus; 24 g/ha,50%
same,"Results of comparison experiment (16DAA), weed control",Amaranthus retroflexus; 48 g/ha,50%
same,"Results of comparison experiment (16DAA), weed control",Descurainia sophia; 3 g/ha,0%
same,"Results of comparison experiment (16DAA), weed control",Descurainia sophia; 6 g/ha,10%
same,"Results of comparison experiment (16DAA), weed control",Descurainia sophia; 12 g/ha,20%
same,"Results of comparison experiment (16DAA), weed control",Descurainia sophia; 24 g/ha,30%
same,"Results of comparison experiment (16DAA), weed control",Descurainia sophia; 48 g/ha,40%
same,"Results of comparison experiment (16DAA), weed control",Galium aparine; 3 g/ha,0%
same,"Results of comparison experiment (16DAA), weed control",Galium aparine; 6 g/ha,0%
same,"Results of comparison experiment (16DAA), weed control",Galium aparine; 12 g/ha,0%
same,"Results of comparison experiment (16DAA), weed control",Galium aparine; 24 g/ha,0%
same,"Results of comparison experiment (16DAA), weed control",Galium aparine; 48 g/ha,10%
same,"Results of comparison experiment (16DAA), weed control",Echinochloa crusgali; 3 g/ha,10%
same,"Results of comparison experiment (16DAA), weed control",Echinochloa crusgali; 6 g/ha,20%
same,"Results of comparison experiment (16DAA), weed control",Echinochloa crusgali; 12 g/ha,30%
same,"Results of comparison experiment (16DAA), weed control",Echinochloa crusgali; 24 g/ha,40%
same,"Results of comparison experiment (16DAA), weed control",Echinochloa crusgali; 48 g/ha,50%
same,"Results of comparison experiment (16DAA), weed control",Capsella bursa-pastoris; 3 g/ha,0%
same,"Results of comparison experiment (16DAA), weed control",Capsella bursa-pastoris; 6 g/ha,10%
same,"Results of comparison experiment (16DAA), weed control",Capsella bursa-pastoris; 12 g/ha,10%
same,"Results of comparison experiment (16DAA), weed control",Capsella bursa-pastoris; 24 g/ha,20%
same,"Results of comparison experiment (16DAA), weed control",Capsella bursa-pastoris; 48 g/ha,30%
same,"Results of comparison experiment (16DAA), weed control",Sinapis arvensis; 3 g/ha,0%
same,"Results of comparison experiment (16DAA), weed control",Sinapis arvensis; 6 g/ha,0%
same,"Results of comparison experiment (16DAA), weed control",Sinapis arvensis; 12 g/ha,20%
same,"Results of comparison experiment (16DAA), weed control",Sinapis arvensis; 24 g/ha,40%
same,"Results of comparison experiment (16DAA), weed control",Sinapis arvensis; 48 g/ha,50%
